Assay results as given in ChEMBL document CHEMBL1156714, “Microwave induced synthesis of novel 8,9-dihydro-7H-pyrimido[4,5-b][1,4]diazepines as potential antitumor agents” (2008).
The source made the active and inactive calls. The calls are words filed in the database; no cut-off is given here.

Legend:
HCT-116 = assay: Growth inhibition of human HCT116 cells after 48 hrs by SRB assay; type: functional; details: HCT-116, 48 h; for CC50: read-out: LC50 (the source's name)
Hs-578T = assay: Growth inhibition of human HS578T cells after 48 hrs by SRB assay; type: functional; details: for CC50: read-out: LC50 (the source's name)
NCI-H522 = assay: Growth inhibition of human NCI-H522 cells after 48 hrs by SRB assay; type: functional; details: NCI-H522, 48 h; for CC50: read-out: LC50 (the source's name)
BT-549 = assay: Growth inhibition of human BT549 cells after 48 hrs by SRB assay; type: functional; details: BT-549, 48 h
UO-31 = assay: Growth inhibition of human UO31 cells after 48 hrs by SRB assay; type: functional; details: UO-31, 48 h; for CC50: read-out: LC50 (the source's name)
HCT-15 = assay: Growth inhibition of human HCT15 cells after 48 hrs by SRB assay; type: functional; details: HCT-15, 48 h; for CC50: read-out: LC50 (the source's name)
SR = assay: Growth inhibition of human SR cells after 48 hrs by SRB assay; type: functional
IGROV-1 = assay: Growth inhibition of human IGROV1 cells after 48 hrs by SRB assay; type: functional; details: IGROV-1, 48 h; for CC50: read-out: LC50 (the source's name)
[1] = Growth inhibition of human HL60(TB) cells after 48 hrs by SRB assay; type: functional, HL-60(TB)
RXF 393 [2] = assay: Growth inhibition of human RXF393 cells after 48 hrs by SRB assay; type: functional; details: RXF 393, 48 h
RPMI-8226 = assay: Growth inhibition of human RPMI8226 cells after 48 hrs by SRB assay; type: functional; details: RPMI-8226, 48 h; for CC50: read-out: LC50 (the source's name)
NCI-60 = assay: Growth inhibition of human NCI-60 cells at 1.0 uM; type: functional, cell-based
DU-145 = assay: Growth inhibition of human DU145 cells after 48 hrs by SRB assay; type: functional; details: DU-145, 48 h
MOLT-4 = assay: Growth inhibition of human MOLT4 cells after 48 hrs by SRB assay; type: functional; details: MOLT-4, 48 h
COLO 205 = assay: Growth inhibition of human COLO205 cells after 48 hrs by SRB assay; type: functional; details: COLO 205, 48 h
[3] = Growth inhibition of human OVACR5 cells after 48 hrs by SRB assay; type: functional
[4] = Growth inhibition of human OVACR4 cells after 48 hrs by SRB assay; type: functional
LOX IMVI = assay: Growth inhibition of human LOX IMVI cells after 48 hrs by SRB assay; type: functional
K562 = assay: Growth inhibition of human K562 cells after 48 hrs by SRB assay; type: functional; details: K562, 48 h
MDA-MB-231 = assay: Growth inhibition of human MDA-MB-231 cells after 48 hrs by SRB assay; type: functional; details: MDA-MB-231, 48 h
ACHN = assay: Growth inhibition of human ACHN cells after 48 hrs by SRB assay; type: functional
TK-10 = assay: Growth inhibition of human TK10 cells after 48 hrs by SRB assay; type: functional; details: TK-10, 48 h
A498 = assay: Growth inhibition of human A498 cells after 48 hrs by SRB assay; type: functional; details: A498, 48 h
SF-268 = assay: Growth inhibition of human SF268 cells after 48 hrs by SRB assay; type: functional; details: SF-268, 48 h
SF-295 = assay: Growth inhibition of human SF295 cells after 48 hrs by SRB assay; type: functional; details: SF-295, 48 h
[5] = Growth inhibition of human OVACR3 cells after 48 hrs by SRB assay; type: functional
SW-620 = assay: Growth inhibition of human SW620 cells after 48 hrs by SRB assay; type: functional; details: SW-620, 48 h
MCF7 = assay: Growth inhibition of human MCF7 cells after 48 hrs by SRB assay; type: functional; details: MCF7, 48 h
HCC 2998 = assay: Growth inhibition of human HCC2998 cells after 48 hrs by SRB assay; type: functional; details: HCC 2998, 48 h
MDA-MB-468 = assay: Growth inhibition of human MDA-MB-468 cells after 48 hrs by SRB assay; type: functional; details: MDA-MB-468, 48 h
HT-29 = assay: Growth inhibition of human HT29 cells after 48 hrs by SRB assay; type: functional; details: HT-29, 48 h
NCI-H322M = assay: Growth inhibition of human NCI-H322M cells after 48 hrs by SRB assay; type: functional
PC-3 = assay: Growth inhibition of human PC3 cells after 48 hrs by SRB assay; type: functional; details: PC-3, 48 h
SNB-75 = assay: Growth inhibition of human SNB75 cells after 48 hrs by SRB assay; type: functional; details: SNB-75, 48 h
NCI/ADR-RES = assay: Growth inhibition of human NCI/ADR-RES cells after 48 hrs by SRB assay; type: functional
KM12 = assay: Growth inhibition of human KM12 cells after 48 hrs by SRB assay; type: functional; details: KM12, 48 h
RXF 393 [6] = assay: Growth inhibition of human […] cells after 48 hrs by SRB assay; type: functional; details: RXF 393, 48 h
HOP-62 = assay: Growth inhibition of human HOP62 cells after 48 hrs by SRB assay; type: functional; details: HOP-62, 48 h
A549 = assay: Growth inhibition of human A549 cells after 48 hrs by SRB assay; type: functional; details: A549, 48 h
[7] = Growth inhibition of human […] cells after 48 hrs by SRB assay; type: functional
U-251 = assay: Growth inhibition of human U251 cells after 48 hrs by SRB assay; type: functional; details: U-251, 48 h
[8] = read-out: LC50 (the source's name)

Nc1ncnc2c1N=C(c1ccc3c(c1)OCO3)CC(c1ccc([N+](=O)[O-])cc1)N2 (racemic)
GI50 (HCT-116): 18.2 µM
CC50 (HCT-116): > 100 µM
GI50 (Hs-578T): 9.18 µM
CC50 (Hs-578T): > 100 µM
GI50 (NCI-H522): 6.78 µM
CC50 (NCI-H522): > 100 µM
GI50 (BT-549): 1.68 µM
CC50 (BT-549; [8]): > 100 µM
GI50 (UO-31): 18.1 µM
CC50 (UO-31): > 100 µM
GI50 (HCT-15): 9.55 µM
CC50 (HCT-15): > 100 µM
GI50 (SR): 2.37 µM
LC50 (concentration killing 50% of cells) (SR): > 100 µM
GI50 (IGROV-1): 0.068 µM
CC50 (IGROV-1): 25.5 µM
LC100 [1]: >100 µM
GI50 ([1]; Homo sapiens, HL-60, 48 h): 13.1 µM
GI50 (RXF 393 [2]): 7.19 µM
CC50 (RXF 393 [2]; [8]): > 100 µM
GI50 (RPMI-8226): 0.19 µM
CC50 (RPMI-8226): > 100 µM
Activity (NCI-60): Active

Nc1ncnc2c1N=C(c1ccc3c(c1)OCO3)CC(c1ccc(Cl)cc1)N2 (racemic)
GI50 (DU-145): 16.8 µM
CC50 (DU-145; [8]): 65.9 µM
GI50 (MOLT-4): 5.85 µM
CC50 (MOLT-4; [8]): > 100 µM
GI50 (COLO 205): 15 µM
CC50 (COLO 205; [8]): > 100 µM
GI50 [3]: 18.3 µM
CC50 [3, 8]: > 100 µM
GI50 [4]: 18.3 µM
LC50 [4]: > 100 µM
GI50 (HCT-116): 10.7 µM
CC50 (HCT-116): 47.5 µM
GI50 (LOX IMVI): 10.1 µM
CC50 (LOX IMVI; [8]): > 100 µM
GI50 (K562): 4.27 µM
LC50 (K562): > 100 µM
GI50 (Hs-578T): 1.07 µM
CC50 (Hs-578T): > 100 µM
GI50 (MDA-MB-231): 2.7 µM
CC50 (MDA-MB-231; [8]): 55.6 µM
GI50 (ACHN): 8.25 µM
LC50 (lethal concentration 50%) (ACHN): > 100 µM
GI50 (TK-10): 8.23 µM
CC50 (TK-10; [8]): > 100 µM
GI50 (NCI-H522): 2.37 µM
CC50 (NCI-H522): > 100 µM
GI50 (A498): 5.94 µM
LC50 (A498): > 100 µM
GI50 (SF-268): 8.52 µM
LC50 (50% lethal concentration) (SF-268): > 100 µM
GI50 (UO-31): 7.48 µM
CC50 (UO-31): > 100 µM
GI50 (SF-295): 14.7 µM
LC50 (SF-295): > 100 µM
GI50 [5]: 3.71 µM
LC50 [5]: 83 µM
GI50 (SW-620): 4.91 µM
CC50 (SW-620; [8]): > 100 µM
GI50 (MCF7): 3.61 µM
LC50 (MCF7): > 100 µM
GI50 (HCC 2998): 5.88 µM
LC50 (concentration killing 50% of cells) (HCC 2998): > 100 µM
GI50 (MDA-MB-468): 10.1 µM
CC50 (MDA-MB-468; [8]): > 100 µM
GI50 (HT-29): 3.81 µM
CC50 (HT-29; [8]): > 100 µM
GI50 (NCI-H322M): 16.9 µM
CC50 (NCI-H322M; [8]): > 100 µM
GI50 (HCT-15): 3.14 µM
CC50 (HCT-15): 55.2 µM
GI50 (PC-3): 9.06 µM
CC50 (PC-3; [8]): 50.8 µM
GI50 (IGROV-1): 0.35 µM
CC50 (IGROV-1): 42.8 µM
GI50 (SNB-75): 5.22 µM
CC50 (SNB-75; [8]): > 100 µM
GI50 (NCI/ADR-RES): 5.35 µM
CC50 (NCI/ADR-RES; [8]): > 100 µM
GI50 ([1]; Homo sapiens, HL-60, 48 h): 5.37 µM
CC50 ([1]; Homo sapiens, HL-60, 48 h, read-out: LC50 (the source's name)): > 100 µM
GI50 (KM12): 2.03 µM
CC50 (KM12; [8]): > 100 µM
GI50 (RXF 393 [6]): 2.51 µM
CC50 (RXF 393 [6]; [8]): 59.3 µM
GI50 (RPMI-8226): 1.5 µM
CC50 (RPMI-8226): > 100 µM
Activity (NCI-60): Active
GI50 (HOP-62): 16.6 µM
CC50 (HOP-62; [8]): > 100 µM
GI50 (A549): 11.6 µM
LC50 (A549): 78.3 µM
GI50 [7]: 4.66 µM
CC50 [7, 8]: > 100 µM
GI50 (U-251): 6.19 µM
CC50 (U-251; [8]): 78.9 µM

COc1ccc(C2=Nc3c(N)ncnc3NC(c3ccc4c(c3)OCO4)C2)cc1 (racemic)
Activity (NCI-60): inactive

COc1ccc(C2CC(c3ccc4c(c3)OCO4)=Nc3c(N)ncnc3N2)cc1 (racemic)
Activity (NCI-60): inactive

Nc1ncnc2c1N=C(c1ccc(Cl)cc1)CC(c1ccc3c(c1)OCO3)N2 (racemic)
Activity (NCI-60): inactive

Nc1ncnc2c1N=C(c1ccc([N+](=O)[O-])cc1)CC(c1ccc3c(c1)OCO3)N2 (racemic)
Activity (NCI-60): inactive
